Results reported in publication PMC9023544, “Ketone-selenoesters as potential anticancer and multidrug resistance modulation agents in 2D and 3D ovarian and breast cancer in vitro models” (Scientific Reports, 2022).

Tested on: ABC superfamily genes in MCF-7/PAX
Experiment: Expression of genes encoding ABC transporters, qPCR
Format: cell-based, human
Procedure: Based on the fact that compounds K3, K4, K7 sensitized drug-resistant cell lines (HOC/ADR, MCF-7/PAX) and modulated ATPase activity of one from the ABC proteins (P-gp), we verified the potential of these compounds to affect ABC superfamily gene expression. The ovarian and breast cancer cell lines (parental cells and resistant sub-line) were analysed for the expression profile of genes encoding the ABC proteins in the previous works[18]–[20]. […] After 48 h, the effect of compounds alone or in the combination with cytostatics was observed (Supplementary Tables 1, Table 2).
To determine the impact of selected compounds on the expression of genes encoding ABC transporter, HOC/ADR and MCF-7/PAX cells were seeded for 24 h into 5 cm Petri dishes with DMEM medium at the cell density 1 × 10^5 cells/mL. Afterwards, the cells were washed 1× with PBS and new fresh DMEM supplemented with K3, K4, and K7 (in concentration corresponding to their IC10 value) alone or combined with cytostatics (Adriamycin or paclitaxel in concentration corresponding to their IC25 value) was added. In the experiment, positive and negative control was also included (positive—untreated cells, negative—cells treated only with cytostatics). After 48 h exposure, the cells were washed once with PBS and released from the surface by using the above-mentioned trypsin–EDTA procedure. The enzyme reaction was stopped by medium addition and the cells were centrifuged (3200×g; 10 min, 4 °C). The supernatants were removed and before the next centrifugation, the pellets were resuspended in 1.5 mL of cooled PBS (5400×g; 10 min, 4 °C). After the second washing step, the cells were centrifuged another time (10,000×g; 3 min, 4 °C). Subsequently, 1 mL of Trizol (Invitrogen) was added to the pellets and the compounds were stored − 80 °C.
The RNA concentration of selenoester treated samples was determined using QuantiT RiboGreen RNA Assay Kit and Infinite M200 plate reader (Tecan, Männedor, Switzerland). The cDNA was synthesized from 0.5 µg of total RNA by RevertAid First Strand Synthesis cDNA Kit (MBI Fermentas, Vilnius, Lithuania). To determine the quality of cDNA, the ubiquitin C gene fragment was amplified. The experiment was performed in 384-well block by using ViiA7 Real-Time PCR System (Life Technologies, Camarillo, California, United States). A master mix contained 0.25 µL of 20× TaqMan Gene Expression Assay, 1 µL of 5× HotFIREPol Probe qPCR Mix Plus, 1.75 µL of RNase free water and 2 µL of 8× diluted cDNA. The final reaction volume was 5 µL. The PCR parameters were as follows: initial hold (50 °C for 2 min), denaturation (95 °C for 10 min), followed by 45 cycles (denaturation at 95 °C for 15 s, annealing at 60 °C for 1 min). After each cycle, the fluorescent signal was determined. For each compound, duplicates were analysed and those with a standard deviation higher than 0.5 Ct were re-analysed. A quantitate real-time PCR was followed by MIQE guidelines. To compare the relative transcript levels of genes, the software REST 2009 (Qiagen, Hilden, Germany) was used.
Table 2. Effect of selenoesters either on the expression of the ABC gene superfamily in paclitaxel-resistant breast cancer cell line (MCF-7/PAX).
Gene expression of ABC transporters were estimated using comercial predesigned Taqman Gene Expression Assays (Life technologies). TaqMan Gene Expression Assays are based on 5´ nuclease chemistry, and each assay contains the primer and probe set for target of interest. Taqman assays IDs and GenBank Accession numbers of reference sequencies identifying their location and amplicon lengths are included in the Supplementary Table I. * Relative transcript levels (P-value ) in treated and non-treated cancer cell lines were compared using REST 2009 software.

## CC(=O)C[Se]C(=O)c1ccccc1C(F)(F)F [K4]
  number of ABC genes with altered expression: 31
IC10 alone, 48 h
  ABCA2 Expression Difference: 0.282
  ABCA2 Treated vs. Untr.: DOWN
  ABCA3 Expression Difference: 0.766
  ABCA3 Treated vs. Untr.: DOWN
  ABCA4 Expression Difference: 40.43
  ABCA5 Expression Difference: 0.789
  ABCA5 Treated vs. Untr.: DOWN
  ABCA7 Expression Difference: 0.757
  ABCA7 Treated vs. Untr.: DOWN
  ABCA12 Expression Difference: 1.702
  ABCB1 Expression Difference: 0.568
  ABCB1 Treated vs. Untr.: DOWN
  ABCB2 Expression Difference: 0.467
  ABCB2 Treated vs. Untr.: DOWN
  ABCB3 Expression Difference: 0.323
  ABCB3 Treated vs. Untr.: DOWN
  ABCB6 Expression Difference: 0.524
  ABCB6 Treated vs. Untr.: DOWN
  ABCB7 Expression Difference: 0.214
  ABCB7 Treated vs. Untr.: DOWN
  ABCB8 Expression Difference: 0.683
  ABCB8 Treated vs. Untr.: DOWN
  ABCB9 Expression Difference: 0.639
  ABCB9 Treated vs. Untr.: DOWN
  ABCB10 Expression Difference: 1.163
  ABCC1 Expression Difference: 0.398
  ABCC1 Treated vs. Untr.: DOWN
  ABCC2 Expression Difference: 0.127
  ABCC2 Treated vs. Untr.: DOWN
  ABCC3 Expression Difference: 26.21
  ABCC4 Expression Difference: 0.316
  ABCC4 Treated vs. Untr.: DOWN
  ABCC5 Expression Difference: 1.378
  ABCC6 Expression Difference: 2.041
  ABCC8 Expression Difference: 1.590
  ABCC10 Expression Difference: 0.265
  ABCC10 Treated vs. Untr.: DOWN
  ABCD1 Expression Difference: 0.179
  ABCD1 Treated vs. Untr.: DOWN
  ABCD3 Expression Difference: 0.365
  ABCD3 Treated vs. Untr.: DOWN
  ABCD4 Expression Difference: 1.288
  ABCE1 Expression Difference: 0.795
  ABCE1 Treated vs. Untr.: DOWN
  ABCF1 Expression Difference: 3.646
  ABCF2 Expression Difference: 0.942
  ABCF3 Expression Difference: 0.753
  ABCF3 Treated vs. Untr.: DOWN
  ABCG1 Expression Difference: 0.325
  ABCG1 Treated vs. Untr.: DOWN
  ABCG2 Expression Difference: 0.378
  ABCG2 Treated vs. Untr.: DOWN
  ABCG4 Expression Difference: 0.412
  ABCG4 Treated vs. Untr.: DOWN
  decrease of expression of ABCB1 (P-gp) encoding gene: 43%
  downregulation of expression of ABCC1 (MRP1): 60%
  downregulation of expression of ABCG2: 62%

## CC(=O)C[Se]C(=O)c1ccc(C(C)(C)C)cc1 [K7]
  number of ABC genes with altered expression: 32
IC10 alone, 48 h
  ABCA2 Expression Difference: 0.159
  ABCA2 Treated vs. Untr.: DOWN
  ABCA3 Expression Difference: 0.376
  ABCA3 Treated vs. Untr.: DOWN
  ABCA4 Expression Difference: 20.68
  ABCA5 Expression Difference: 0.600
  ABCA5 Treated vs. Untr.: DOWN
  ABCA7 Expression Difference: 0.384
  ABCA7 Treated vs. Untr.: DOWN
  ABCA12 Expression Difference: 0.745
  ABCA12 Treated vs. Untr.: DOWN
  ABCB1 Expression Difference: 0.361
  ABCB1 Treated vs. Untr.: DOWN
  ABCB2 Expression Difference: 0.274
  ABCB2 Treated vs. Untr.: DOWN
  ABCB3 Expression Difference: 0.164
  ABCB3 Treated vs. Untr.: DOWN
  ABCB6 Expression Difference: 0.305
  ABCB6 Treated vs. Untr.: DOWN
  ABCB7 Expression Difference: 0.131
  ABCB7 Treated vs. Untr.: DOWN
  ABCB8 Expression Difference: 0.407
  ABCB8 Treated vs. Untr.: DOWN
  ABCB9 Expression Difference: 0.340
  ABCB9 Treated vs. Untr.: DOWN
  ABCB10 Expression Difference: 0.822
  ABCB10 Treated vs. Untr.: DOWN
  ABCC1 Expression Difference: 0.238
  ABCC1 Treated vs. Untr.: DOWN
  ABCC2 Expression Difference: 0.061
  ABCC2 Treated vs. Untr.: DOWN
  ABCC3 Expression Difference: 15.69
  ABCC4 Expression Difference: 0.213
  ABCC4 Treated vs. Untr.: DOWN
  ABCC5 Expression Difference: 0.933
  ABCC5 Treated vs. Untr.: DOWN
  ABCC6 Expression Difference: 0.424
  ABCC6 Treated vs. Untr.: DOWN
  ABCC8 Expression Difference: 0.651
  ABCC8 Treated vs. Untr.: DOWN
  ABCC10 Expression Difference: 0.170
  ABCC10 Treated vs. Untr.: DOWN
  ABCD1 Expression Difference: 0.104
  ABCD1 Treated vs. Untr.: DOWN
  ABCD3 Expression Difference: 0.247
  ABCD3 Treated vs. Untr.: DOWN
  ABCD4 Expression Difference: 0.872
  ABCD4 Treated vs. Untr.: DOWN
  ABCE1 Expression Difference: 0.505
  ABCE1 Treated vs. Untr.: DOWN
  ABCF1 Expression Difference: 2.263
  ABCF2 Expression Difference: 0.601
  ABCF2 Treated vs. Untr.: DOWN
  ABCF3 Expression Difference: 0.484
  ABCF3 Treated vs. Untr.: DOWN
  ABCG1 Expression Difference: 0.307
  ABCG1 Treated vs. Untr.: DOWN
  ABCG2 Expression Difference: 0.207
  ABCG2 Treated vs. Untr.: DOWN
  ABCG4 Expression Difference: 0.188
  ABCG4 Treated vs. Untr.: DOWN
  decrease of expression of ABCB1 (P-gp) encoding gene: 64%
  downregulation of expression of ABCC1 (MRP1): 76%
  downregulation of expression of ABCG2: 80%
